Laboratory results taken from patent US20230167414A1, “METHODS FOR ISOLATING AND CULTURING TUMOR CELLS” (Georgetown University, priority 2020, published 2023).

Columns and labels:
airway epithelial cells = details: cited from earlier work
the cells = experiment: Culture conditions described herein with upstream/downstream ROCK pathway inhibitor in place of a ROCK inhibitor; format: cell-based; details: used in the culture conditions in place of a ROCK inhibitor
Source text: As used herein, inhibiting ROCK can mean to reduce the activity, function, or expression of at least one of ROCK1 or ROCK2. […] In general, ROCK phosphorylates LEVI kinase and myosin light chain (MLC) phosphatase after being activated through binding of GTP-bound Rho. One embodiment of the present invention thus involves blocking the upstream pathway of ROCK1 and/or ROCK2, for example GTP-bound Rho, such that ROCK1 and/or ROCK2 is not activated or its activity is reduced over untreated cells. Other upstream effectors include, but are not limited to, integrins, growth factor receptors, including but not limited to, TGF-beta and EGFR, cadherins, G protein coupled receptors and the like. Another embodiment of the present invention thus involves blocking the activity, function, or expression of downstream effector molecules of activated ROCK1 and/or ROCK2 such that ROCK1 and/or ROCK2 cannot propagate any signal or can only propagate a reduced signal over untreated cells. Downstream effectors include, but are not limited to, myosin phosphatase-targeting protein (MYPT), vimentin, LIMK, myosin light chain kinase, NHE1, cofilin, Myosin II and the like.

Row | Molecule | effect of inhibition on airway epithelial cells (airway epithelial cells) | effect on cells (differentiation / proliferation in vitro) (the cells)
1 | C[C@@H](N)[C@H]1CC[C@H](C(=O)Nc2ccncc2)CC1 [Y-27632] | induces membrane ruffling, loss of actin stress fibers and apoptosis | 
2 | O=S(=O)(c1cccc2cnccc12)N1CCCNCC1 [HA 1077, fasudil] | induces membrane ruffling, loss of actin stress fibers and apoptosis | 
3 | C3 transferase |  | allow the cells to bypass differentiation and allow proliferation in vitro
4 | Cc1ccc2c(c1)C(=O)C1(O)CCN(c3ccccc3)C1=N2 (stereo not shown) [blebbistatin] |  | allow the cells to bypass differentiation and allow proliferation in vitro
